Measured values from the NIST ThermoML archive (doi:10.1016/j.jct.2012.01.025).

Key:
[1] = molar enthalpy of vaporization or sublimation; settings: 298.15 K; Crystal; Drop calorimetry
[2] = for vapor or sublimation pressure: Closed cell (Static) method
[3] = Molar enthalpy of transition or fusion; settings: Crystal; DSC

c1ccc2c(c1)-c1cccc3cccc-2c13 [fluoranthene]
Settings | Molar enthalpy of transition or fusion [kcal/mol] | molar enthalpy [kcal/mol]
[1] | – | 23
[3] | 4.63 | –

[2]
Settings | Normal melting temperature [°C] | vapor or sublimation pressure [kPa]
348.83 K, Crystal | – | 0.00042
351.82 K, Crystal | – | 0.00056
354.78 K, Liquid | – | 0.00117
354.79 K, Crystal | – | 0.00076
356.76 K, Liquid | – | 0.00137
357.77 K, Crystal | – | 0.00101
360.71 K, Liquid | – | 0.00185
360.73 K, Crystal | – | 0.0013
363.72 K, Crystal | – | 0.00171
366.68 K, Crystal | – | 0.00225
366.68 K, Liquid | – | 0.0029
368.53 K, Liquid | – | 0.0033
369.65 K, Crystal | – | 0.00292
370.63 K, Liquid | – | 0.00384
372.57 K, Liquid | – | 0.00438
372.62 K, Crystal | – | 0.00379
374.61 K, Liquid | – | 0.00509
375.59 K, Crystal | – | 0.00491
378.57 K, Liquid | – | 0.0067
382.51 K, Liquid | – | 0.00865
384.49 K, Liquid | – | 0.00979
386.46 K, Liquid | – | 0.01118
388.46 K, Liquid | – | 0.01265
390.43 K, Liquid | – | 0.01425
392.43 K, Liquid | – | 0.0161
394.39 K, Liquid | – | 0.0181
396.38 K, Liquid | – | 0.02041
398.36 K, Liquid | – | 0.02287
400.35 K, Liquid | – | 0.02578
402.34 K, Liquid | – | 0.02887
404.3 K, Liquid | – | 0.03224
Crystal, DTA | 109.69 | –
